Measured values as given in patent US8623856B2, “Phenoxy-azetidine derivatives as sphingosine 1-phosphate (S1P) receptor modulators” (Allergan, Inc., priority 2012, dated 2014).

target: T1, human S1P1 receptor (Homo sapiens, UniProt P21453); experiment: GTP γ35S binding assay for S1P1 activity; format: biochemical; settings: membranes of cells stably expressing the S1P1 receptor, agonist activity potency
T1 construct: expressed in transfected cells; host or cells: unnamed cell line stably expressing the S1P1 receptor; membranes were used
Description: Compounds were synthesized and tested for S1P1 activity using the GTP γ^35S binding assay. These compounds may be assessed for their ability to activate or block activation of the human S1P1 receptor in cells stably expressing the S1P1 receptor. GTP γ^35S binding was measured in the medium containing (mM) HEPES 25, pH 7.4, MgCl2 10, NaCl 100, dithitothreitol 0.5, digitonin 0.003%, 0.2 nM GTP γ^35S, and 5 μg membrane protein in a volume of 150 μl. Test compounds were included in the concentration range from 0.08 to 5,000 nM unless indicated otherwise. Membranes were incubated with 100 μM 5′-adenylylimmidodiphosphate for 30 min, and subsequently with 10 μM GDP for 10 min on ice. Drug solutions and membrane were mixed, and then reactions were initiated by adding GTP γ^35S and continued for 30 min at 25° C. Reaction mixtures were filtered over Whatman GF/B filters under vacuum, and washed three times with 3 mL of ice-cold buffer (HEPES 25, pH7.4, MgCl2 10 and NaCl 100). Filters were dried and mixed with scintillant, and counted for ^35S activity using a β-counter. Agonist-induced GTP γ^35S binding was obtained by subtracting that in the absence of agonist. Binding data were analyzed using a non-linear regression method. In case of antagonist assay, the reaction mixture contained 10 nM S1P in the presence of test antagonist at concentrations ranging from 0.08 to 5000 nM.

T1 sequence (P21453 whole entry): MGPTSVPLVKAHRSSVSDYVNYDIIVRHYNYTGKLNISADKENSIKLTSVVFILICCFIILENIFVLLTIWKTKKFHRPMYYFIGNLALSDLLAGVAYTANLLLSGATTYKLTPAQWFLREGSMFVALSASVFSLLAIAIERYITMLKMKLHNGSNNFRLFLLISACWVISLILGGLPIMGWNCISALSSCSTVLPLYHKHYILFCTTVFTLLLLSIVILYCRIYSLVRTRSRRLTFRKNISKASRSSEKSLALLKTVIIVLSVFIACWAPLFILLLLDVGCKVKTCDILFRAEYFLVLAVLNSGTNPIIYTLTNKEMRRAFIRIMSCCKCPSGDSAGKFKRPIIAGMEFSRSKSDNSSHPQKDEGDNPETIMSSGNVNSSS

Row | EC50 | Structure (SMILES)
1 | 1.37 nM | Cc1ccc(CC(CCCOc2ccc(CN3CC(C(=O)O)C3)cc2)c2cccc(F)c2F)cc1C (stereo not shown) [1-(4-{([4-(2,3-difluorophenyl)-5-(3,4-dimethylphenyl)pentyl]oxy}benzyl)azetidine-3-carboxylic acid]
2 | 5.7 nM | Cc1ccc(CC(CCCOc2ccc(CN3CC(C(=O)O)C3)cc2)c2ccsc2)cc1C (stereo not shown) [1-(4-{[5-(3,4-dimethylphenyl)-4-(3-thienyl)pentyl]oxy}benzyl)azetidine-3-carboxylic acid]
3 | 1.4 nM | Cc1ccc(CC(CCCOc2ccc(CN3CC(C(=O)O)C3)cc2)c2cc(F)cc(F)c2)cc1C (stereo not shown) [1-(4-{[4-(3,5-difluorophenyl)-5-(3,4-dimethylphenyl)pentyl]oxy}benzyl)azetidine-3-carboxylic acid]

Row | Structure (SMILES) | EC50
4 | Cc1ccc(CC(CCOc2ccc(CN3CC(C(=O)O)C3)cc2)c2cccc(Cl)c2)cc1C (stereo not shown) [1-{4-[3-(3-chlorophenyl)-4-(3,4-dimethylphenyl)butoxy]benzyl}azetidine-3-carboxylic acid] | 50.2 nM
